Experimental data: publication PMC11129186, “New Improved cGMP Analogues to Target Rod Photoreceptor Degeneration” (Journal of Medicinal Chemistry, 2024)
Several values for one entry are separate records, joined by “and”; a condition that tells them apart may be missing. Equal values may be shown once. Read-outs that look alike come from different tables or passages of the source.

Tests used:
[1] = tested on: 661W-A11 cells stressed with zaprinast; assay: Cell viability MTT assay in cells stressed with zaprinast; assay type: cell-based, mouse; conditions: 50 μM compound, 200 μM zaprinast for 48 h
Description: The neuroprotective activity of the newly developed compounds was then evaluated in 661W-A11 cells stressed with zaprinast. Viability was assessed by an MTT assay.
(§1) 661W-A11 cells were seeded in 96-well plates at a density of 6000 cells/well or in 24-well plates at a density of 20,000 cells/well. Twenty-four h after seeding, cells were pretreated with 50 μM of either CN03-Na^+ or CN03 or SP-CN03 or oxo-CN03 or dithio-CN03 for 2 h, followed by 200 μM zaprinast treatment for 48 h in the presence of the compounds. Control groups were treated with an equal volume of vehicle, H2O or DMSO.
661W-A11 cells were cultured on 96-well plates at a density of 6000 cells/well. After compound treatments, the culture medium was replaced with medium containing 1 mg/mL of MTT (Sigma) and cells were cultured for 90 min at 37 °C. Viability was assessed by MTT assay (see above for detailed procedure). OD was measured at 570 nm.

[2] = tested on: 661W-A11 cells stressed with zaprinast; assay: Dose-response curves of cell viability (MTT) under zaprinast stress; assay type: cell-based, mouse; conditions: for EC50: read-out: EC50 of cell viability
Description: For this analysis, we used the 661W-A11 cells stressed with zaprinast and exposed them to scaling concentrations of either dithio-CN03 or SP-CN03 or CN03-Na^+. The effects were evaluated by the cell viability MTT assay (Figure 5). […] Nevertheless, CN03-Na^+ and SP-CN03 reached up to 70–80% cell viability, while dithio-CN03 could protect rod photoreceptors to almost 100% cell viability at the highest doses (Figure 5). Although dithio-CN03 was considered more hydrophobic, and its entrance in the cells could have been facilitated by this feature, the calculated EC50 was nonetheless similar to more hydrophilic analogues.
661W-A11 cells were seeded in 96-well plates at a density of 6000 cells/well, and the following day they were pretreated with scaling concentrations of either CN03-Na^+ or SP-CN03 or dithio-CN03 for 2 h and then stressed with zaprinast 200 μM in the presence of the compounds for 48 h. Cell viability was assessed by MTT assay (see above for detailed procedure). OD was measured at 570 nm. Data were plotted and EC50 calculated using GraphPad Prism version 7.

[3] = tested on: primary photoreceptor cells derived from rd1 mutant mice; assay: Cell death TUNEL assay in primary photoreceptors; assay type: cell-based, mouse; conditions: for neuroprotective effect, cell death (TUNEL): 50 μM added at day 10 of differentiation, read at day 11
Source text: To address this possible limitation of the RP model, we tested the CN03 analogues in another RP in vitro cellular model, previously validated for the analysis of cGMP analogues.[10] This model is based on the primary cell culture and differentiation of cells derived from rd1 mutant eyes. The rd1 mouse is one of the best characterized murine models of RP. It carries a mutation in the Phosphodiesterase 6b (Pde6b) gene. Lack of PDE6 function causes high intracellular levels of cGMP in rod photoreceptor cells.[26],[9] […] CN03-Na^+, SP-CN03, and dithio-CN03 were administered to the culture of rd1 mutant cells at a concentration of 50 μM at day 10 of differentiation. The concentration of the compounds and the time of treatment were chosen based on the previously published study in which cGMP inhibitory analogues were tested in this type of primary photoreceptors.[10] Cell death was then analyzed by the TUNEL assay at day 11 of in vitro differentiation.
rd1 mutant mice were purchased from Charles River Italy. The protocol was approved by the Ethical Committee of the University of Modena and Reggio Emilia and by the Italian Ministero della Salute (150/2021-PR). Primary neurospheres were derived from the eyes of rd1 mutant mice, as previously reported.[32] Retinal stem cells in neurospheres were differentiated into photoreceptors, as previously reported.[10]rd1 mutant photoreceptor cells underwent spontaneous cell death after differentiation for 11 days. At day 10, 50 μM of either CN03-Na^+ or SP-CN03 or dithio-CN03 were added to the cells in culture and cell death was assessed 1 day later (day 11 of differentiation) by TUNEL assay (see above for detailed procedure).

[4] = tested on: photoreceptor cells of murine models of RP; set-up: method as in PMID 29531030; conditions: in vivo delivered; cited from earlier work
[5] = tested on: CNGC; set-up: method as in PMID 29531030; conditions: in vitro and in vivo; cited from earlier work
[6] = tested on: PKG; set-up: method as in PMID 29531030; conditions: in vitro and in vivo; cited from earlier work
[7] = tested on: 661W-A11 cells stressed with zaprinast; assay: Cell death TUNEL assay in cells stressed with zaprinast; assay type: cell-based, mouse; conditions: 50 μM compound, 200 μM zaprinast for 48 h
Description: Viability assay cannot discriminate between protection from cell death and possible increased proliferation induced by the treatment. To discriminate between these two responses, we analyzed cell death by the TUNEL assay that detects dying cells based on fragmented chromatin. The TUNEL assay confirmed data obtained with the MTT assay (Figure 3B,C).
as §1
661W-A11 cells were seeded in 24-well plates at a density of 20,000 cells/well. After treatments, cells were fixed with 2% paraformaldehyde for 10 min and permeabilized with 1 M Na^+ citrate and 0.1% Triton X-100 on ice for 2 min. Cells were incubated with TUNEL solution “In situ Cell Death Detection Kit” TMR Red (Roche) for 30 min at 37 °C, and cell nuclei were stained with 0.1 μg/mL 4′,6-diamidin-2-fenilindolo (DAPI). […] The quantification of percentage of dead cells was based on the ratio of TUNEL-labeled cells on the total number of cells (DAPI-labeled).

[8] = tested on: 661W-A11 cells; assay: Toxicity assay, MTT viability of unstressed cells; assay type: cell-based, mouse; conditions: 1 μM to 1 mM, 48 h; dithio-CN03 in DMSO, compared to DMSO vehicle
Source text: With the aim of developing a new treatment for RP, we evaluated possible toxic effects of the cGMP analogues on a retinal cell line. The target of the treatment for RP is rod photoreceptors, the cells that die due to increased intracellular levels of cGMP during the progression of retinal degeneration. […] Furthermore, this cell line can be stressed with zaprinast, a phosphodiesterase 6 (PDE6) inhibitor, to increase intracellular cGMP and activate cell death pathways, as found in the RP mutant retina. […] A toxicity test was set up by exposing 661W-A11 cells to increasing doses of the four new TEA salts of CN03: CN03, SP-CN03, oxo-CN03, and dithio-CN03 (Figure 2). Viability of the cells was assessed by an MTT assay that measures cell metabolic activity. […]
661W-A11 cells were seeded in 96-well plates at a density of 6000 cells/well, and the following day they were treated with scaling concentrations of either CN03-Na^+, CN03, SP-CN03, oxo-CN03, or dithio-CN03 for 48 h. […] Cell viability was assessed with MTT (3-(4,5-dimethylthiazol-2-yl)-2,5-diphenyl tetrazolium bromide, Sigma). […] The crystals were shaken for 10 min to dissolve and the optical density (OD) was measured at a wavelength of 570 nm.

[9] = Aqueous solubility at room temperature (phase solubility, HPLC); assay type: physicochemical
Description: Physicochemical properties of dithio-CN03 were characterized and compared to CN03. […] Salt forms of CN03, for example, were prepared varying in aqueous solubility as low as 0.01 mg/mL.[12] To facilitate future development of reactive crystallizations toward other salt forms, a temperature-dependent solubility was also measured between 20 and 75 °C. The resulting solubility curve can be found in the Supporting Information (Figure S38).
The solubility of dithio-CN03 was measured at room temperature and in quadruplicate by phase solubility techniques. Saturated mixtures of the compound were prepared by adding excess starting material to 4 mL vials containing 2 mL of deionized water. They were allowed to equilibrate for 24 h using mild agitation before recording the pH. The clear solution was separated from the solids by filtration with a Cytiva Whatman Mini-Uniprep polypropylene 0.45 μm filter device and diluted to an appropriate analytical concentration where needed. The sample was then analyzed by HPLC, and the solubility was determined by integrating the area of the peak of interest against a standard curve. The solids were also analyzed by XRPD to record the crystal modification obtained.
Solubility data for dithio-CN03
Table S1: Aqueous solubility at room temperature
Sample mg / mL pH of mixture […]
(1 picture or pasted object on this page, not shown here)

[10] = Thermal analysis (DSC and TG); assay type: physicochemical; conditions: crystal modification I; scan 10 °C/min
Description: Finally, we performed thermal analyses on crystal modification I by using differential scanning calorimetry (DSC) and thermogravimetry (TG), both of which confirmed a behavior analogous to that of CN03. There were no observable melting points. Instead, there was only a sharp exothermic event on DSC at 170 °C associated with significant mass loss on TG, which we interpreted as a thermal decomposition of the compound (Figure 1B). It should be noted that decomposition peaks on DSC and TG are not indicative of physical stability (e.g., melting point, and solubility). Since the material was crystalline, it was considered to own a melting point at a higher temperature than this decomposition.
DSC analyses were carried out on a Mettler DSC822e, equipped with a Thermo Haake EK45/MT cooler. The samples were weighed into a 40 μL Al-cup, which was then closed with a pierced lid. The sample was scanned from 25 to 300 °C, with a scan rate of 10 °C/min.
TG was performed on a Mettler TGA/SDTA 851e, equipped with a Haake C50P cooler. Alternatively, thermogravimetric and DSC analyses were carried out simultaneously in a Mettler Toledo TGA/DSC 3+. The samples were weighed into a 100 μL Al-cup, and this was flushed with dry nitrogen gas during the analysis. The sample was scanned from 25 to 300 °C, with a scan rate of 10 °C/min.

[11] = molecular target: PDE6 purified enzyme; set-up: method as in PMID 16123402; conditions: cited from earlier work
[12] = saturated aqueous mixture, room temperature

With `O=c1c2nc(Br)n([C@@H]3O[C@@H]4CO[P@](O)(=S)O[C@H]4[C@H]3O)c2nc2[nH]c(-c3ccccc3)cn12` [SP-CN03, Triethylammonium SP-8-Bromo-β-phenyl-1,N^2-ethenoguanosine-3′,5′-cyclicmonophosphorothioate] the “protective effect on cell viability (MTT)” value (shortened to “protective effect … (MTT)”) [1] was “increasing cell viability”, the “cell viability reached at the highest doses” value (shortened to “cell viability reached”) ([2]; 200 μM zaprinast for 48 h, MTT) was 70–80% and the EC50 ([2]; Mus musculus, 661W-A11, 48 h) was 16 µM. For the same compound, the “neuroprotective effect, cell death (TUNEL)” value (from here on “neuroprotective effect”) [3] was “neuroprotective effect similar to CN03-Na^+” and the toxicity to photoreceptors ([3]; 50 μM, 24 h) was “not toxic to photoreceptors”.

For `O=c1c2nc(Br)n([C@@H]3O[C@@H]4CO[P@@](O)(=S)O[C@H]4[C@H]3O)c2nc2[nH]c(-c3ccccc3)cn12` [CN03, RP-8-Br-PET-cGMPS], the “preservation of photoreceptor cells” value [4] is listed as “could preserve photoreceptor cells of murine models of RP”, the “block of Ca2+ influx through the CNGC” value [5] is listed as “block Ca^2+ influx through the CNGC” and the “interference with PKG activity” value [6] is listed as “interfere with PKG activity”.

With `CCN(CC)CC.O=c1c2nc(Br)n([C@@H]3O[C@@H]4COP(=S)(S)O[C@H]4[C@H]3O)c2nc2[nH]c(-c3ccccc3)cn12` (stereo partly drawn) [dithio-CN03, Triethylammonium 8-Bromo-β-phenyl-1,N^2-ethenoguanosine-3′,5′-cyclicmonophosphorodithioate] the “protection from cell death (TUNEL)” value [7] was “highest neuroprotective activity”, the “protective effect … (MTT)” value [1] was “significantly higher protective effects compared to CN03-Na^+” and the “cell viability reached” value ([2]; 200 μM zaprinast for 48 h, MTT) was ~100%. For the same compound, the EC50 ([2]; Mus musculus, 661W-A11, 48 h) was 20 µM, the “toxicity (cell viability, MTT)” value [8] was “lowest toxicity” and the “neuroprotective effect” value [3] was “significantly better neuroprotective activity”. For the same compound, the “solubility compared to CN03” value ([9]; aqueous) was “lower solubility”, the solubility at 24 h ([9]; deionized water, pH 5.6, deionized H2O, room temperature, corresponds to crystal modification II (trihydrate), read-out: aqueous solubility) was 1170 µg/mL and the solubility at 24 h ([9]; deionized water, pH 5.6, deionized H2O, room temperature, read-out: aqueous solubility) was 1800 µM. The solubility at 24 h ([9]; deionized water, water, thermodynamic from solid, room temperature, deionized water, 24 h equilibration, read-out: aqueous solubility, single samples 1-4 (Table S1)) was 1160 µg/mL, the “aqueous solubility, single samples 1-4 (Table S1)” value ([9]; room temperature, deionized water, 24 h equilibration) was 1198 µg/mL and 1160 µg/mL and 1169 µg/mL and the “pH of mixture, Average (Table S1)” value [9, 12] was 5.6. The “pH of mixture, single samples 1-4 (Table S1)” value [9, 12] was 4.7 and 5.6 and 5.9 and 6.3 and the “exothermic event on DSC with mass loss on TG, interpreted as thermal decomposition” value [10] was 170 °C.

In the case of `O=c1c2nc(Br)n([C@@H]3O[C@@H]4COP(=O)(O)O[C@H]4[C@H]3O)c2nc2[nH]c(-c3ccccc3)cn12` [oxo-CN03, Triethylammonium 8-Bromo-β-phenyl-1,N^2-ethenoguanosine-3′,5′-cyclicmonophosphate], the “protection from cell death (TUNEL)” value [7] is reported as “failure of oxo-CN03 to protect” and the “protective effect … (MTT)” value [1] is reported as “All CN03 compounds, except oxo-CN03, were able to improve cell viability”.

In the case of `CCCOc1ccccc1-c1nc2nn[nH]c2c(=O)[nH]1` [zaprinast], the Ki [11] is listed as 0.03 µM.

With `O=c1c2nc(Br)n([C@@H]3O[C@@H]4CO[P@@]([O-])(=S)O[C@H]4[C@H]3O)c2nc2[nH]c(-c3ccccc3)cn12.[Na+]` [CN03-Na^+] the “cell viability reached” value [2] was 70–80%, the EC50 ([2]; 200 μM zaprinast for 48 h, doses 1 μM to 1 mM, MTT) was 16.9 µM and the “neuroprotective effect” value [3] was “decreased the percentage of cell death”.
